# Test results as given in patent publication US7803982B2, “T1R3 transgenic animals, cells and related methods” (The Mount Sinai School of Medicine of New York University, priority 2001, dated 2010).
# Entries after “also recorded” stand apart in the source; their conditions may differ. Where a name gives a salt, the structure may show the parent alone.
# Experiments:
# Assay type in all cases: in vivo, mouse
# [1] = system: chorda tympani (CT) nerve of T1R3 knock-out and B6 wild-type mice; experiment: Whole-nerve recording from the chorda tympani (CT) nerve on lingual application of tastants; conditions: integrated response normalized to 100 mM NH4Cl
# Procedure: (§1) The general linear model for repeated measurements analysis was used to compare the responses of T1R3 knock-out, B6 wild-type and 129 wild-type mice, with tastant concentration as dependant variables and genotype as fixed factor. For each compound, the responses from all concentrations were analyzed together, the response from each concentration being treated as a single value for the multiple measurement analysis. For behavioral tests, the F value is given for comparison of all genotypes. When a significant difference was found, the Tukey's test was used to determine which means differed. P values from the Tukey's test are given for T1R3 knock-out vs. B6 and for T1R3 knock-out vs. 129. When this analysis gave a borderline p value (0.05<p<0.06) each concentration was analyzed individually using the general linear model univariate analysis. For CT and GL nerve responses to glucose, maltose and sucralose the general linear model univariate analysis was used because only one concentration was tested for each of these tastants.
# (§2) To examine the contributions of the gustatory nerves to the behavioral responses, we recorded from the chorda tympani (CT) branch of the facial nerve and the glossopharyngeal (GL) nerve of T1R3 knock-out and B6 wild-type mice. Recordings of electrical impulses from the chorda tympani (CT) and the glossopharyngeal (GL) nerves were performed according to known methods (Kawai, K. et al., Proc. Nat'l. Acad. Sci. USA, 97: 11044 (2000)). Male and female mice were used. Tastants were applied at a regular flow rate to the tongue for 30 seconds (CT) or 60 seconds (GL). Tastant concentrations are listed below:
# (§3) At 5, 10, 15, 20 and 25 seconds (for the CT) and 5, 10, 20, 30 and 40 seconds (for the GL) after stimulus onset the integrated response magnitudes to each stimulus were measured in the chart records as magnitudes of pen deflection (mm) from baseline (before stimulation) and averaged. These averages were normalized to the response to NH4Cl and analyzed with the General Linear Model Multiple Measures of SPSS with tastant concentrations provided to subjects as “variables” and genotype differences between subjects as “factor”. The single concentrations (see FIG. 14) used for the sugars, sorbitol and saccharin were chosen to be in the midrange of CT responses of C57BL6 mice based on previous studies (Ninomiya, Y. and Imoto, T., Am J. Physiol., 268: R1019 (1995); Ninomiya, Y. et al., Am J. Physiol., 269: R930 (1995); Inoue, M. et al., Chem. Senses, 26: 915 (2001)).
# [2] = system: T1R3 knock-out, B6 wild-type and 129 wild-type mice; experiment: 48-hour two-bottle preference test (tastant versus water); conditions: for Behavioral (preference) response of T1R3 knock-out mice compared with B6 wild-type mice: 48 h two-bottle test, concentrations eliciting preference in B6 wild-type; for Response of T1R3 knock-out mice compared with 129 mice: two-bottle preference; for Preference responses compared among B6, 129 and T1R3 knock-out mice: B6 (taster), 129 (nontaster), T1R3 knock-out (null)
# Procedure: Behavioral tests were conducted to examine the responses of T1R3 knock-out mice to tastants representing five taste qualities (sweet, bitter, salty, sour and umami). Mice of both sexes aged between 2 and 12 months were used. Age- and gender-matched mice were used in the three genotype groups, and littermates were used in the knock-out and B6 wild-type control groups. The two-bottle preference test consisted of giving the mice two bottles, one containing deionized water and the other a tastant solution, for 48 hours. The bottle positions were swapped after 24 hours to eliminate position effects. The ratio of tastant to total liquid consumed was measured and compared between groups using known methods (see, e.g., Wong, G. T. et al., Nature, 381: 796 (1996).
# The tastants were presented at two-fold or three-fold ascending concentrations. The mice were allowed a 7-day recovery period with deionized water between tastants. The order of tastants for Group 1 was sucrose, quinine, SC45647, MSG, acesulfame K, sucralose and glucose. The order of tastants for Group 2 was NaCl, HCl and maltose. All tastants were of the highest purity available. MSG solutions also contained 10 micromolar amiloride to block the salty taste of the Na+. Tastant concentrations are listed below in order of presentation:
# as §1
# [3] = system: glossopharyngeal (GL) nerve of T1R3 knock-out and B6 wild-type mice; experiment: Whole-nerve recording from the glossopharyngeal (GL) nerve on lingual application of tastants; conditions: for GL responses of T1R3 knock-out mice compared with B6 wild-type mice: integrated response normalized to 100 mM NH4Cl
# Procedure: as §1, §2, §3
SMILES,CT responses of T1R3 knock-out mice compared with B6 wild-type mice [1],Behavioral (preference) response of T1R3 knock-out mice compared with B6 wild-type mice [2],GL responses of T1R3 knock-out mice compared with B6 wild-type mice [3],also measured
"OC[C@H]1O[C@H](O[C@H]2[C@H](O)[C@@H](O)C(O)O[C@@H]2CO)[C@H](O)[C@@H](O)[C@@H]1O (mixture of isomers) [Maltose, maltose]",significant differences; also recorded: diminished; also recorded: moderately or markedly diminished,no difference,–,Response of T1R3 knock-out mice compared with 129 mice [2]: did not differ
"CC1=CC(=O)[N-]S(=O)(=O)O1.[K+] [AceK, acesulfame K]",markedly diminished; also recorded: near-zero,indifference,Significant differences; also recorded: reduced,"GL nerve responses of B6 wild-type mice compared with their CT responses [3]: lower at concentrations below 100 mM, but higher at 300 mM; Concentration at which the reduced GL response of T1R3 knock-out mice was evident ([3]; T1R3 knock-out vs B6 wild-type): 30 to 300 mM; Preference responses compared among B6, 129 and T1R3 knock-out mice [2]: strongest in B6 mice, weakest in T1R3 knock-out mice, and intermediate in 129 mice"
N[C@H](Cc1c[nH]c2ccccc12)C(=O)O [D-tryptophan],nearly abolished; also recorded: near-zero,–,–,–
"O=C[C@H](O)[C@@H](O)[C@H](O)[C@H](O)CO [Glucose, glucose]",not significantly diminished,reduced response; also recorded: slightly reduced,–,Response of T1R3 knock-out mice compared with 129 mice [2]: did not differ
Cl [HCl],–,–,unchanged,–
"N[C@@H](CCC(=O)O)C(=O)[O-].[Na+] [MSG, monosodium glutamate]",slightly diminished; also recorded: diminished only at the highest concentration tested,moderately diminished,no differences,"Behavioral (preference) response of T1R3 knock-out mice compared with B6 wild-type mice ([2]; listed as monosodium glutamate (MSG)): reduced response; Preference of T1R3 knock-out mice compared with B6 wild-type mice ([2]; concentrations between 30 and 300 mM): reduced, but not abolished"
[Cl-].[Na+] [NaCl],–,–,unchanged,–
"C=C[C@H]1CN2CC[C@H]1C[C@H]2[C@H](O)c1ccnc2ccc(OC)cc12.C=C[C@H]1CN2CC[C@H]1C[C@H]2[C@H](O)c1ccnc2ccc(OC)cc12.O=S(=O)(O)O [Quinine, quinine sulfate]",–,–,unchanged,–
C[C@H](NC(=NCC(=O)O)Nc1ccc(C#N)cc1)c1ccccc1 [SC45647],markedly diminished; also recorded: near-zero,indifference,Significant differences; also recorded: reduced,"GL nerve responses of B6 wild-type mice compared with their CT responses [3]: much lower; Preference responses compared among B6, 129 and T1R3 knock-out mice [2]: strongest in B6 mice, weakest in T1R3 knock-out mice, and intermediate in 129 mice"
"OC[C@H]1O[C@H](O[C@]2(CCl)O[C@H](CCl)[C@@H](O)[C@@H]2O)[C@H](O)[C@@H](O)[C@H]1Cl [Sucralose, sucralose]",near-zero,indifference,–,"Preference responses compared among B6, 129 and T1R3 knock-out mice [2]: strongest in B6 mice, weakest in T1R3 knock-out mice, and intermediate in 129 mice"
"OC[C@H]1O[C@@](CO)(O[C@H]2O[C@H](CO)[C@@H](O)[C@H](O)[C@H]2O)[C@@H](O)[C@@H]1O [Sucrose, sucrose]",markedly diminished; also recorded: moderately or markedly diminished,markedly diminished; also recorded: indifference,Significant differences; also recorded: reduced,GL nerve responses of B6 wild-type mice compared with their CT responses [3]: much lower; Behavior of T1R3 knock-out mice at high tastant concentration ([2]; concentrations 5- to 10-fold those needed to elicit a strong preference in B6 wild-type mice): preferred; Response of T1R3 knock-out mice compared with 129 mice [2]: weaker
O=C(CO)[C@@H](O)[C@H](O)[C@H](O)CO [fructose],diminished; also recorded: moderately or markedly diminished,–,–,–
O=C1NS(=O)(=O)c2ccccc21 [saccharin],near-zero,–,–,–
OC[C@@H](O)[C@@H](O)[C@H](O)[C@@H](O)CO [sorbitol],diminished; also recorded: moderately or markedly diminished,–,–,–
